What was measured:
Assay in all cases: KINOMEscan
Type in all cases: binding
Details in all cases: read-out: percent control
RIPK2 = RIPK2 (Homo sapiens (Human), UniProt O43353)
Text: (§1) Example 2. In Vitro Kinase Selectivity Profiling of the Compounds of the Present Disclosure

FLT3-autoinhibited = FLT3-autoinhibited (Homo sapiens (Human), UniProt P36888)
Text: as §1

YSK1 = YSK1 (Homo sapiens (Human), UniProt O00506)
Text: as §1

RET(V804L) = RET(V804L) (Homo sapiens (Human), UniProt P07949, V804L)
Text: as §1

[1] = target: ABL1(Q252H)-nonphosphorylated (Homo sapiens (Human), UniProt P00519, Q252H)
Text: as §1

TRPM6 = TRPM6 (Homo sapiens (Human), UniProt Q9BX84)
Text: as §1

SGK = SGK (Homo sapiens (Human), UniProt O00141)
Text: as §1

TAOK1 = TAOK1 (Homo sapiens (Human), UniProt Q7L7X3)
Text: as §1

BMX = BMX (Homo sapiens (Human), UniProt P51813)
Text: as §1

SGK3 = SGK3 (Homo sapiens (Human), UniProt Q96BR1)
Chain of SGK3 (Q96BR1 whole entry): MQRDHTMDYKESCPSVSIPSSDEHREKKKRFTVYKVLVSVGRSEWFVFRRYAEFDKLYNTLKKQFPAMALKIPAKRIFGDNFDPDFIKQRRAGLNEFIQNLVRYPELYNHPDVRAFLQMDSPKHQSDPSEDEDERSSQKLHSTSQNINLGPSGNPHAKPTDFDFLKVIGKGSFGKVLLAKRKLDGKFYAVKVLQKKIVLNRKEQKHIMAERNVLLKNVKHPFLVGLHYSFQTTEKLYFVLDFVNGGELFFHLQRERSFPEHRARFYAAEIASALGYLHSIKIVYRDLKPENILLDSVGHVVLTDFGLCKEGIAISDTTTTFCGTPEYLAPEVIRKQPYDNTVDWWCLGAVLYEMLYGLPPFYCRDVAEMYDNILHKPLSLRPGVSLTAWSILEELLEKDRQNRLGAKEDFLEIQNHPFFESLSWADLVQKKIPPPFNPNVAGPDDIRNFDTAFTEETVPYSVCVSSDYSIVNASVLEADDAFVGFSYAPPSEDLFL
Text: as §1

PRKG2 = PRKG2 (Homo sapiens (Human), UniProt Q13237)
Chain of PRKG2 (Q13237 whole entry): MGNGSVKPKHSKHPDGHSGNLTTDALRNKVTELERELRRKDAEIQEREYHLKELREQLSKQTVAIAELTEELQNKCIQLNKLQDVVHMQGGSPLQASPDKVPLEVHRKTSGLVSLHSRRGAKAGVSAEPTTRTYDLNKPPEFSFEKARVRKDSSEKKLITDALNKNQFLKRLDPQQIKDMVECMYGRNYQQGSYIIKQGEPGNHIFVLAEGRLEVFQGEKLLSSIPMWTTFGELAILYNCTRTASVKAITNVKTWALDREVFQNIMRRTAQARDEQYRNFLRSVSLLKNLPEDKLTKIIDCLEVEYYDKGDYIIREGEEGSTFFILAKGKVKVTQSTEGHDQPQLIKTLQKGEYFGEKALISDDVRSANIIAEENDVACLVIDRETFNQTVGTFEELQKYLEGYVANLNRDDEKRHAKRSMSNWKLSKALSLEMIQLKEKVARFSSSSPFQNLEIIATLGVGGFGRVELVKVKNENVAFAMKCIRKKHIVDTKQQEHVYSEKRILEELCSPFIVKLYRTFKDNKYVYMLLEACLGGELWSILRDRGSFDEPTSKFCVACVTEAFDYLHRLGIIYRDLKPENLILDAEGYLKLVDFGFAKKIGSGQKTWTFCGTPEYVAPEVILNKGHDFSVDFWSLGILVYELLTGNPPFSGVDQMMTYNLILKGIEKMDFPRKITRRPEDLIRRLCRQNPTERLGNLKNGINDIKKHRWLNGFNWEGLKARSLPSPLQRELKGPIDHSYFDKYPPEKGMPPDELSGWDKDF
Text: as §1

FLT1 = FLT1 (Homo sapiens (Human), UniProt P17948)
Text: as §1

MRCKA = MRCKA (Homo sapiens (Human), UniProt Q5VT25)
Text: as §1

EPHA6 = EPHA6 (Homo sapiens (Human), UniProt Q9UF33)
Text: as §1

S6K1 = S6K1 (Homo sapiens (Human), UniProt P23443)
Chain of S6K1 (P23443 whole entry): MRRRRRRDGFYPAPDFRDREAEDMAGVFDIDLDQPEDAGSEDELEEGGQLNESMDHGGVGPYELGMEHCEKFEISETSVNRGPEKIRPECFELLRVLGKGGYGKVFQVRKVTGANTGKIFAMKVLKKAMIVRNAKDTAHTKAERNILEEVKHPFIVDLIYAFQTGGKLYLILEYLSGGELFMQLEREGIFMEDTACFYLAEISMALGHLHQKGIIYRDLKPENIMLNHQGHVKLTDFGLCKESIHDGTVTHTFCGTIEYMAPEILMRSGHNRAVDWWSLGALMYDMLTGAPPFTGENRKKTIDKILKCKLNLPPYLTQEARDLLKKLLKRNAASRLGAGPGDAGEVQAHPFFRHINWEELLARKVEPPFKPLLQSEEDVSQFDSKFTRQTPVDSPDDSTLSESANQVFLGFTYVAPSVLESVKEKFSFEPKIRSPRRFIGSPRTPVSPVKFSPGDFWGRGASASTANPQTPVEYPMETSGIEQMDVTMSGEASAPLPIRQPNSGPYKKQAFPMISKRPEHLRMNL
Text: as §1

CDC2L2 = CDC2L2 (Homo sapiens (Human), UniProt Q9UQ88)
Text: as §1

GAK = GAK (Homo sapiens (Human), UniProt O14976)
Text: as §1

ERK1 = ERK1 (Homo sapiens (Human), UniProt P27361)
Chain of ERK1 (P27361 whole entry): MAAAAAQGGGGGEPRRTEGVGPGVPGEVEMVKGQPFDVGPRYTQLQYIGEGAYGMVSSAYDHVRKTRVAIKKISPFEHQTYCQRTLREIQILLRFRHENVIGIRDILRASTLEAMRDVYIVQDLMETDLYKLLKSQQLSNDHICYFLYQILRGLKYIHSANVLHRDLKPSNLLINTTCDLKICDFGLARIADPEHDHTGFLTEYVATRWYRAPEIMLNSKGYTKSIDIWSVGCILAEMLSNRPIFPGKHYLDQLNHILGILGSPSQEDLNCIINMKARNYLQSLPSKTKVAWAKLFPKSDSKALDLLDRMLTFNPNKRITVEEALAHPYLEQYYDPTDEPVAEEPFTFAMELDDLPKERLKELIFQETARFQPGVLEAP
Text: as §1

CSNK1G2 = CSNK1G2 (Homo sapiens (Human), UniProt P78368)
Text: as §1

MEK5 = MEK5 (Homo sapiens (Human), UniProt Q13163)
Text: as §1

PKAC-beta = PKAC-beta (Homo sapiens (Human), UniProt P22694)
Text: as §1

[2] = target: ABL1(T315I)-nonphosphorylated (Homo sapiens (Human), UniProt P00519, T315I)
Text: as §1

CAMK2A = CAMK2A (Homo sapiens (Human), UniProt Q9UQM7)
Text: as §1

NEK7 = NEK7 (Homo sapiens (Human), UniProt Q8TDX7)
Text: as §1

NIK = NIK (Homo sapiens (Human), UniProt Q99558)
Text: as §1

FLT3(R834Q) = FLT3(R834Q) (Homo sapiens (Human), UniProt P36888, R834Q)
Text: as §1

ITK = ITK (Homo sapiens (Human), UniProt Q08881)
Chain of ITK (Q08881 whole entry): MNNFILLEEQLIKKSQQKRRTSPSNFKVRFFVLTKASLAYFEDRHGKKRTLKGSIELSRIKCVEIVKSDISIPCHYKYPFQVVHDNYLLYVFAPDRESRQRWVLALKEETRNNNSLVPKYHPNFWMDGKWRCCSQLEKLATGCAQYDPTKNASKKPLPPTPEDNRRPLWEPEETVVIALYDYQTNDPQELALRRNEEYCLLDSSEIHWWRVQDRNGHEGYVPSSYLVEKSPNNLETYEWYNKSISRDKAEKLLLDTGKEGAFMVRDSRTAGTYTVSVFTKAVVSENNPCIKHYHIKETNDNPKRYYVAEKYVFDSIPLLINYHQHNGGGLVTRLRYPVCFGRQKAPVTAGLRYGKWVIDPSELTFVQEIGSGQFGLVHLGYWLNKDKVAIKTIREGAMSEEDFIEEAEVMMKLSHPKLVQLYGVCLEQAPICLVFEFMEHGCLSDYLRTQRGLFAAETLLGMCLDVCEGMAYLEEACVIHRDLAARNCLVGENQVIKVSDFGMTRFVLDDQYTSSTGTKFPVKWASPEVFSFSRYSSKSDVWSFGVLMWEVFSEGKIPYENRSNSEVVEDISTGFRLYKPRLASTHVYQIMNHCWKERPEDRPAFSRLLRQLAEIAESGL
Text: as §1

[3] = target: TYK2(JH1domain-catalytic) (Homo sapiens (Human), UniProt P29597)
Text: as §1

PDGFRB = PDGFRB (Homo sapiens (Human), UniProt P09619)
Chain of PDGFRB (P09619 33-1106): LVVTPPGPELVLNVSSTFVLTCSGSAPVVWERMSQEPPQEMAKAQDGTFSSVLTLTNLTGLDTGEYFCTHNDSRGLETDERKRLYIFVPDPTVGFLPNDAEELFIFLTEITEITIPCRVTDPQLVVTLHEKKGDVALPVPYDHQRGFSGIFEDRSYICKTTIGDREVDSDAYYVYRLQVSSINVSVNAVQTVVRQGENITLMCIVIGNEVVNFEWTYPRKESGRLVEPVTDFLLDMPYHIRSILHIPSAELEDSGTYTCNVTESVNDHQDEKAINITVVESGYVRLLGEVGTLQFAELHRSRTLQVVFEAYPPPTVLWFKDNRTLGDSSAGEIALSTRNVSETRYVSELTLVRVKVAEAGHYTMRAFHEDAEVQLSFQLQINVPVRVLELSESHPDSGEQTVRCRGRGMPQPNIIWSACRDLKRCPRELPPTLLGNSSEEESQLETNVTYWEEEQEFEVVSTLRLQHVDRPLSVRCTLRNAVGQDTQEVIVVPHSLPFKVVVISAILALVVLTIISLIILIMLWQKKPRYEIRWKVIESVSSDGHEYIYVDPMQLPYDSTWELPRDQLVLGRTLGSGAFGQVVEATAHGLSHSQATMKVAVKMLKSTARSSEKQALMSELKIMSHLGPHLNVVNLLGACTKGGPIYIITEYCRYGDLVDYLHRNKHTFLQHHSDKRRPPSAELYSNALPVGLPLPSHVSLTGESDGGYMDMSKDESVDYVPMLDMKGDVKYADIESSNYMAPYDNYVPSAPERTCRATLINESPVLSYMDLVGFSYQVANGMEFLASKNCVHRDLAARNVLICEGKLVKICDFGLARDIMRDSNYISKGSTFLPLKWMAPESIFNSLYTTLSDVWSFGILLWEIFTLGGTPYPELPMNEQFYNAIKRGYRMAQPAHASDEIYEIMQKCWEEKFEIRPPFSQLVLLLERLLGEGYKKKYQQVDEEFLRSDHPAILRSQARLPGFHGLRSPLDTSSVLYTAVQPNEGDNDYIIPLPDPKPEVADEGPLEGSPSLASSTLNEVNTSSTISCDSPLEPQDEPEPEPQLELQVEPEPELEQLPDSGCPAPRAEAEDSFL
Text: as §1

[4] = target: ABL1(Y253F)-phosphorylated (Homo sapiens (Human), UniProt P00519, Y253F)
Text: as §1

PIK3CA(H1047Y) = PIK3CA(H1047Y) (Homo sapiens (Human), UniProt P42336, H1047Y)
Text: as §1

ERBB4 = ERBB4 (Homo sapiens (Human), UniProt Q15303)
Text: as §1

CDK11 = CDK11 (Homo sapiens (Human), UniProt Q9BWU1)
Text: as §1

EGFR = EGFR (Homo sapiens (Human), UniProt P00533)
Chain of EGFR (P00533 25-1210): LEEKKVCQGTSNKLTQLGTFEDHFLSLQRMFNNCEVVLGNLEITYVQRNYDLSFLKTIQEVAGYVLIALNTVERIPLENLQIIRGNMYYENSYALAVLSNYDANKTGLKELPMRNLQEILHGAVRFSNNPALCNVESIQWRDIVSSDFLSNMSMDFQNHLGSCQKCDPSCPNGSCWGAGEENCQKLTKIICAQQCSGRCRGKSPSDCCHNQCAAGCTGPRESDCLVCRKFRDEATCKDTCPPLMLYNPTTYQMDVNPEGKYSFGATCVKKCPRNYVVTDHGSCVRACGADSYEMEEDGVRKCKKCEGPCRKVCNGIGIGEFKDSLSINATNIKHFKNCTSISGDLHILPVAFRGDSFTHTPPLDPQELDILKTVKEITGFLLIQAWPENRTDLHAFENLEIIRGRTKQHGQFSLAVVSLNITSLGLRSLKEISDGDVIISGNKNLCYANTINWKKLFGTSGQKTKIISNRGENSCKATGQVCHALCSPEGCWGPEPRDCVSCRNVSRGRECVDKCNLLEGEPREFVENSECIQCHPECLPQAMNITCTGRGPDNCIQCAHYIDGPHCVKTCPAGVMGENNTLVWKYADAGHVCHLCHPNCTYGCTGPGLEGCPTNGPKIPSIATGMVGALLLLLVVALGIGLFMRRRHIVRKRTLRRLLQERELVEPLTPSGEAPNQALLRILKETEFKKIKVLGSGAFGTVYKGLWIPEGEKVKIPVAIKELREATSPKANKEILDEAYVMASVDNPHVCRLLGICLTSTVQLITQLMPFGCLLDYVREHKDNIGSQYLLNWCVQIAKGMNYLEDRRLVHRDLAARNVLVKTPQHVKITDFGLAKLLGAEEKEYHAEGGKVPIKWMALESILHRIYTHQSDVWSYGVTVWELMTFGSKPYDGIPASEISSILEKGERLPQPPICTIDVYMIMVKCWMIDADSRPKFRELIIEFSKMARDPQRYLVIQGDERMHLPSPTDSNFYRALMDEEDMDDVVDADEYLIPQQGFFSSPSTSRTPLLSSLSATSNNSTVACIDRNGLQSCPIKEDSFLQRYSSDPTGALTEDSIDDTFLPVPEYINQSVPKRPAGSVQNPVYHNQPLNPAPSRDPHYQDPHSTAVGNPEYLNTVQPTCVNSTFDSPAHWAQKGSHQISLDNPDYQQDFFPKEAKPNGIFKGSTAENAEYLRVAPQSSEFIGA
Text: as §1

[5] = target: RSK4(Kin.Dom.2-C-terminal) (Homo sapiens (Human), UniProt Q9UK32)
Text: as §1

ERK4 = ERK4 (Homo sapiens (Human), UniProt P31152)
Text: as §1

QSK = QSK (Homo sapiens (Human), UniProt Q9Y2K2)
Text: as §1

PAK2 = PAK2 (Homo sapiens (Human), UniProt Q13177)
Text: as §1

EGFR(E746-A750del) = EGFR(E746-A750del) (Homo sapiens (Human), UniProt P00533, DEL746-750)
Text: as §1

MKNK1 = MKNK1 (Homo sapiens (Human), UniProt Q9BUB5)
Text: as §1

SMILES | remaining binding at 1 µM (RIPK2) [%] | remaining binding at 1 µM (FLT3-autoinhibited) [%] | remaining binding at 1 µM (YSK1) [%] | remaining binding at 1 µM (RET(V804L)) [%] | remaining binding at 1 µM [1] [%] | remaining binding at 1 µM (TRPM6) [%] | remaining binding at 1 µM (SGK) [%] | remaining binding at 1 µM (TAOK1) [%] | remaining binding at 1 µM (BMX) [%] | remaining binding at 1 µM (SGK3) [%] | remaining binding at 1 µM (PRKG2) [%] | remaining binding at 1 µM (FLT1) [%] | remaining binding at 1 µM (MRCKA) [%] | remaining binding at 1 µM (EPHA6) [%] | remaining binding at 1 µM (S6K1) [%] | remaining binding at 1 µM (CDC2L2) [%] | remaining binding at 1 µM (GAK) [%] | remaining binding at 1 µM (ERK1) [%] | remaining binding at 1 µM (CSNK1G2) [%] | remaining binding at 1 µM (MEK5) [%] | also measured
CCN1CCN(Cc2ccc(Nc3nc4ccc(Oc5ccnc(NC(C)=O)c5)cc4n3C)cc2C(F)(F)F)CC1 [Compound I-2] | 94 | 100 | 94 | 15 | 0 | 79 | 85 | 77 | 100 | 93 | 92 | 6.3 | 100 | 100 | 82 | 0.1 | 100 | 100 | 100 | 59 | remaining binding at 1 µM (PKAC-beta): 94%; remaining binding at 1 µM [2]: 46%; remaining binding at 1 µM (CAMK2A): 79%; remaining binding at 1 µM (NEK7): 88%; remaining binding at 1 µM (NIK): 100%; remaining binding at 1 µM (FLT3(R834Q)): 100%; remaining binding at 1 µM (ITK): 97%; remaining binding at 1 µM [3]: 23%; remaining binding at 1 µM (PDGFRB): 0%; remaining binding at 1 µM [4]: 44%; remaining binding at 1 µM (PIK3CA(H1047Y)): 62%; remaining binding at 1 µM (ERBB4): 84%; remaining binding at 1 µM (CDK11): 1.5%; remaining binding at 1 µM (EGFR): 79%; remaining binding at 1 µM [5]: 86%; remaining binding at 1 µM (ERK4): 100%; remaining binding at 1 µM (QSK): 60%; remaining binding at 1 µM (PAK2): 97%; remaining binding at 1 µM (EGFR(E746-A750del)): 91%; remaining binding at 1 µM (MKNK1): 95%
CCN1CCN(Cc2ccc(Nc3nc4ccc(Oc5ccnc(NC(C)=O)c5)c(C)c4n3C)cc2C(F)(F)F)CC1 [Compound I-6, N-(4-(2-(4-((4-ethylpiperazin-1-yl)methyl)-3-(trifluoromethyl)phenylamino)-1,7-dimethyl-1H-benzo[d]imidazol-6-yloxy)pyridin-2-yl)acetamide] | 82 | 66 | 65 | 7.8 | 1.9 | 84 | 96 | 46 | 91 | 100 | 93 | 4.2 | 98 | 96 | 84 | 0.2 | 98 | 100 | 100 | 34 | remaining binding at 1 µM (PKAC-beta): 86%; remaining binding at 1 µM [2]: 32%; remaining binding at 1 µM (CAMK2A): 100%; remaining binding at 1 µM (NEK7): 95%; remaining binding at 1 µM (NIK): 100%; remaining binding at 1 µM (FLT3(R834Q)): 57%; remaining binding at 1 µM (ITK): 98%; remaining binding at 1 µM [3]: 36%; remaining binding at 1 µM (PDGFRB): 0.05%; remaining binding at 1 µM [4]: 5.5%; remaining binding at 1 µM (PIK3CA(H1047Y)): 86%; remaining binding at 1 µM (ERBB4): 94%; remaining binding at 1 µM (CDK11): 1.6%; remaining binding at 1 µM (EGFR): 100%; remaining binding at 1 µM [5]: 97%; remaining binding at 1 µM (ERK4): 90%; remaining binding at 1 µM (QSK): 85%; remaining binding at 1 µM (PAK2): 98%; remaining binding at 1 µM (EGFR(E746-A750del)): 89%; remaining binding at 1 µM (MKNK1): 80%

Reference: US12522583B2, “Benzimidazole derivatives and aza-benzimidazole derivatives as Janus kinase 2 inhibitors and uses thereof” (Dana-Farber Cancer Institute, Inc., priority 2018, dated 2026)
